The values below come from ChEMBL document CHEMBL3507680, “University of Dundee, Gates Library screen for HepG2 cell viability”.

The data set in a line: Human HepG2 cell viability assay in 384 well format. The note with it: HepG2 cells, read-out: Inhibition. Type of data set: toxicity, cell-based. On the set-up: dose 125 nL, time 70.5 hour; concentration not given beside the values.

Take `CN(C(=O)c1ccc(C#N)cc1)C1CCN(c2ccccn2)CC1`: the cytotoxicity at 70.5 h came to 12.7%.

For the molecule `CN(C(=O)Nc1cccc(C#N)c1)C1CCN(c2ccccn2)CC1`, the cytotoxicity at 70.5 h was -8.89%.

Regarding `Cc1occc1C(=O)NC1CCN(C(=O)Nc2cccnc2)CC1`, the cytotoxicity at 70.5 h is -5.69%.

Turning to `Cc1ncc(CN(C)c2nc3c(cnn3C(C)(C)C)c(=O)[nH]2)s1`, the cytotoxicity at 70.5 h stood at 11.8%.

With `Cn1nnc2cc(C(=O)NS(=O)(=O)Cc3ccc(F)cc3)ccc21`, the cytotoxicity at 70.5 h was -12.6%.

As to `Cc1cc(C(=O)N2CCC(NC(=O)c3cccnc3)CC2)c(C)o1`, the cytotoxicity at 70.5 h is -9.02%.

On to `CC1(C)CCC(CC(=O)O)c2ccccc21` (stereo not drawn), for which the cytotoxicity at 70.5 h was -3.28%.

Take `CCC(Nc1ccc(Oc2ccc(C#N)cc2OC)cc1)C(N)=O` (stereo not drawn): the cytotoxicity at 70.5 h worked out at 5.26%.

With `Cc1nc(-c2ccsc2)ccc1C(=O)N1CCn2c(C)nnc2C1`, the cytotoxicity at 70.5 h was found to be 11.2%.

For the molecule `Cc1nc(C(NC(=O)C2CCCC2)c2ccccc2F)no1` (stereo not drawn), the cytotoxicity at 70.5 h was -9.04%.

As for `O=C(Nc1ccc(F)cc1)NC1(CCO)CCOCC1`, the cytotoxicity at 70.5 h was -7.29%.

`OC[C@@H](O)CN(CCC(F)(F)F)c1ncc(Br)cn1`: the cytotoxicity at 70.5 h came to 14.1%.

On to `COc1cc(S(=O)(=O)Nc2cn[nH]c2)ccc1Br`, for which the cytotoxicity at 70.5 h was -12.7%.

With `O=S(=O)(Nc1cn[nH]c1)c1ccc(Br)c(F)c1`, the cytotoxicity at 70.5 h was -2.34%.

For `CCc1noc(CC)c1CNC(=O)Nc1ccc2[nH]nnc2c1`, the cytotoxicity at 70.5 h was -4.16%.

Turning to `COc1nc(C)ccc1CNC(=O)NC(C)(C)c1ncc(C)s1`, the cytotoxicity at 70.5 h was -5.61%.

Turning to `CN(CCOc1cccc(Cl)c1)Cc1nnc(C(C)(C)C)o1`, the cytotoxicity at 70.5 h is -2.27%.

Regarding `CC(C)C(=O)N1CCN(CCOc2cccc(C#N)c2)CC1`, the cytotoxicity at 70.5 h is -5.29%.

Consider `Cc1nnc(CN(C)CCCOc2ccc(Cl)cc2)o1`, for which the cytotoxicity at 70.5 h was -10.2%.

Turning to `COCC(C)(CCO)NC(=O)Nc1cccc(Br)c1C` (stereo not drawn), the cytotoxicity at 70.5 h came out at 7.98%.

For `COCCC(=O)N1CCCC1c1cccc(C)c1C` (stereo not drawn), the cytotoxicity at 70.5 h amounted to 23.9%.

Regarding `CNS(=O)(=O)c1ccc(CNC(=O)c2ccccn2)cc1`, the cytotoxicity at 70.5 h is -9.5%.

With `COc1cccc(CCNC(=O)CCS(=O)(=O)C2CCCC2)c1`, the cytotoxicity at 70.5 h is -12.4%.

In the case of `Cc1nn(-c2ccccc2)nc1C(=O)NCC(c1ccsc1)N(C)C` (stereo not drawn), the cytotoxicity at 70.5 h came to 13.1%.

On to `Cc1cccc(CCNC(=O)CCS(=O)(=O)C2CCCC2)c1`, for which the cytotoxicity at 70.5 h was -5.57%.

For the molecule `Cc1nnc2n1CCN(C(=O)c1cnc(C3CC3)s1)C2`, the cytotoxicity at 70.5 h was -2.96%.

Turning to `CS(=O)(=O)NC1CCN(CCc2ccccc2)CC1`, the cytotoxicity at 70.5 h was -9.51%.

Consider `CC(NC(=O)Nc1nnc(-c2ccccn2)s1)C(=O)OC(C)(C)C` (stereo not drawn), for which the cytotoxicity at 70.5 h was -11.7%.

`Cc1noc(CS(=O)(=O)CC(=O)NC(C)c2ccccc2)n1` (stereo not drawn): the cytotoxicity at 70.5 h was -12.5%.

For the molecule `CC(C)OC(=O)CCNC(=O)Nc1cccc2ncccc12`, the cytotoxicity at 70.5 h turned out to be 8.18%.

Regarding `CCC(CC)(CC)NC(=O)Nc1nnc(-c2ccccn2)s1`, the cytotoxicity at 70.5 h is -13.2%.

`CCOc1cc(CNC(=O)c2cc(-c3ccccn3)no2)ccn1`: the cytotoxicity at 70.5 h is -6.7%.

Consider `Cc1cccc(C2CCCN2C(=O)CN(C)S(C)(=O)=O)c1C` (stereo not drawn), for which the cytotoxicity at 70.5 h is -5.26%.

For the molecule `CS(=O)(=O)CCSCc1ccc(Br)c(F)c1`, the cytotoxicity at 70.5 h was -1.55%.

Take `COCc1noc(-c2nn(-c3ccc(F)c(F)c3)c3c2CCC3)n1`: the cytotoxicity at 70.5 h stood at 26%.

Turning to `O=C(Nc1ccn(Cc2cccc3cccnc23)n1)C1COCCO1` (stereo not drawn), the cytotoxicity at 70.5 h was -8.35%.

For `Cc1nc(C2CCCC2)sc1C(N)=O`, the cytotoxicity at 70.5 h turned out to be 12%.

Consider `CS(=O)(=O)CCCSCc1cc(F)cc(Br)c1`, for which the cytotoxicity at 70.5 h was -4.67%.

Regarding `CC(C)NC(=O)CN(C)C1CCN(c2ccc(C#N)cn2)CC1`, the cytotoxicity at 70.5 h worked out at 0.463%.

Take `CC(C)c1nsc(NC2CC(=O)N(C(C)(C)C)C2)n1` (stereo not drawn): the cytotoxicity at 70.5 h was -8.61%.

In the case of `NC(=O)CCSCc1ccc(Br)c(F)c1`, the cytotoxicity at 70.5 h was -8.58%.

With `CCNC(=O)N(C)CCCc1n[nH]c(N)c1C#N`, the cytotoxicity at 70.5 h was found to be 17.3%.

With `COCc1noc(-c2nn(-c3ccc(F)cc3)c3c2CCC3)n1`, the cytotoxicity at 70.5 h was -8.74%.

For the molecule `O=C(NC1CCN(c2cc(-n3ccnc3)ncn2)CC1)c1ccncc1`, the cytotoxicity at 70.5 h is -10.4%.

Turning to `Cc1cc2n(n1)CC(CNCCc1cnn(C)c1)CN2` (stereo not drawn), the cytotoxicity at 70.5 h turned out to be 34.9%.

On to `Cc1ccc(OCCCNC(=O)Cc2nc3ncccn3n2)cc1`, for which the cytotoxicity at 70.5 h was -13.7%.

As for `O=C1NCCN1C1CCN(c2ccnc(-c3ccccc3)n2)CC1`, the cytotoxicity at 70.5 h is -7.99%.

As for `CC(C)Sc1ccc(C(C)NC(=O)CNS(C)(=O)=O)cc1` (stereo not drawn), the cytotoxicity at 70.5 h came to 17%.

Regarding `O=C(CCN1CCc2[nH]nc(C(F)(F)F)c2C1)Nc1ccccc1`, the cytotoxicity at 70.5 h is -2.13%.

With `CC(C)N(Cc1ccc(C#N)cc1)C(=O)NCCNc1ncccn1`, the cytotoxicity at 70.5 h was -12.7%.

On to `N#Cc1ccc(NC(=O)N2CCCCC2CN2CCCC2=O)cc1` (stereo not drawn), for which the cytotoxicity at 70.5 h is -11%.

Regarding `FC(F)(F)c1n[nH]c2c1CN(CCc1ccccn1)CC2`, the cytotoxicity at 70.5 h amounted to 13.8%.

Regarding `CCSc1ccc(C(C)NC(=O)CCS(C)(=O)=O)cc1` (stereo not drawn), the cytotoxicity at 70.5 h is -9.87%.

In the case of `CN1CCN(C2CCN(c3ccnc(-c4ccccc4)n3)CC2)C1=O`, the cytotoxicity at 70.5 h was 6.14%.

`CN(C)c1cc2c(nn1)CCN(C(=O)c1cc3ccccc3[nH]c1=O)C2`: the cytotoxicity at 70.5 h was -15.9%.

With `Cc1cccc(NC(=O)N(CCC(F)(F)F)C[C@H](O)CO)c1`, the cytotoxicity at 70.5 h was -5.55%.

On to `CSCCC(C)NC(=O)N1CCSC(C)(C)C1` (stereo not drawn), for which the cytotoxicity at 70.5 h was determined as 22.4%.

As to `O=C(c1ncncc1Cl)N1CCC2(CCCC2)CC1`, the cytotoxicity at 70.5 h is -5.92%.

With `Cc1nc(NC(=O)OC(C)(C)C)sc1C(=O)O`, the cytotoxicity at 70.5 h is 21.2%.

Take `c1nc(CSc2nnc(C3CC3)s2)cs1`: the cytotoxicity at 70.5 h was found to be 1.83%.

With `CC(C)N(Cc1ccc(C#N)cc1)C(=O)Nc1ccncc1`, the cytotoxicity at 70.5 h was -9.08%.

Regarding `COCCC(C)NC(=O)N1CCSC(C)(C)C1` (stereo not drawn), the cytotoxicity at 70.5 h was -10.1%.

Turning to `Cc1cnc(CNS(=O)(=O)CCC2CCCO2)o1` (stereo not drawn), the cytotoxicity at 70.5 h was -12.3%.

In the case of `CSCC(C)CNC(=O)N1CCSC(C)(C)C1` (stereo not drawn), the cytotoxicity at 70.5 h was -2.74%.

For the molecule `Cc1ccc(NC(=O)NCC(c2cnn(C)c2)N(C)C)c(C)c1` (stereo not drawn), the cytotoxicity at 70.5 h is -11%.

Consider `COCCc1noc(CN(C)c2nccc(C)n2)n1`, for which the cytotoxicity at 70.5 h is -6.87%.

`O=S(=O)(NC1CCC2(CC1)OCCO2)c1cccc(Br)c1`: the cytotoxicity at 70.5 h turned out to be 12%.

For `CC(C)c1noc(CNc2ccc(OC(F)F)cc2OC(F)F)n1`, the cytotoxicity at 70.5 h was determined as 8.88%.

In the case of `O=S(=O)(NC1CC1)c1cccc(Br)c1`, the cytotoxicity at 70.5 h was found to be 3.01%.

As for `O=S(=O)(NC1CCC2(CC1)OCCO2)c1ccccc1Br`, the cytotoxicity at 70.5 h is -1.96%.

With `O=C(Nc1ccc(-n2ccnc2)c(F)c1)C1CCN(C(=O)C2CC2)CC1`, the cytotoxicity at 70.5 h was -1.97%.

In the case of `O=C(Nc1ccc(-n2cncn2)c(F)c1)C1CCN(C(=O)C2CC2)CC1`, the cytotoxicity at 70.5 h is 1.9%.

On to `Cc1ccc(-c2n[nH]cc2CNCC2CCc3nnc(C)n3C2)cc1` (stereo not drawn), for which the cytotoxicity at 70.5 h is -0.696%.

Take `Cc1cccc(CNC(=O)Nc2ccc3c(c2)CCCC(=O)N3)c1`: the cytotoxicity at 70.5 h was -1.4%.

As to `Cc1ccc(C(=O)NCCCC2(C3OCCO3)CCOCC2)cc1C`, the cytotoxicity at 70.5 h is 1.93%.

On to `CCc1ccc(C(=O)NCCCC2(C3OCCO3)CCOCC2)cc1`, for which the cytotoxicity at 70.5 h worked out at 11.6%.

In the case of `Cc1cnn(CCCOc2ccc3c(c2)OCO3)c1`, the cytotoxicity at 70.5 h is -0.603%.

For `CCc1nc(C2CCCN2c2ncc(C(N)=O)cc2Cl)no1` (stereo not drawn), the cytotoxicity at 70.5 h worked out at 3.61%.

Turning to `CCS(=O)(=O)NCCCNc1ncnc2cc(F)c(F)cc12`, the cytotoxicity at 70.5 h was -0.956%.

Regarding `CCc1nsc(N2CCn3c(nnc3C(F)(F)F)C2)n1`, the cytotoxicity at 70.5 h was found to be 2.89%.

Consider `Cc1cc(NC(=O)N(C)C2CCCN(c3ccccc3)C2=O)n(C)n1` (stereo not drawn), for which the cytotoxicity at 70.5 h was -2.17%.

Consider `O=C(CCc1cscn1)N1CCC(C(=O)O)(c2ccccc2)CC1`, for which the cytotoxicity at 70.5 h is 4.76%.

Consider `CN1CCN(C(=O)C2CC=CC2)c2ccccc21`, for which the cytotoxicity at 70.5 h was 9.41%.

As for `CCc1nc(C2CCCN2c2ncc(C(F)(F)F)cc2Cl)no1` (stereo not drawn), the cytotoxicity at 70.5 h amounted to 1.13%.

On to `CCc1n[nH]c(C2CN(Cc3csc(C4CCCC4)n3)CCO2)n1` (stereo not drawn), for which the cytotoxicity at 70.5 h was found to be 6.69%.

Regarding `CN(C)c1ccc(NC(=O)N2CCCC2c2ccsc2)cn1` (stereo not drawn), the cytotoxicity at 70.5 h is -12.1%.

As for `Cc1cc(C)c(CNc2ncnc3ccsc23)c(=O)[nH]1`, the cytotoxicity at 70.5 h was -9.82%.

`COc1ccc(NC(=O)N2CCCCC2c2ncc[nH]2)cc1` (stereo not drawn): the cytotoxicity at 70.5 h was -7.7%.

In the case of `Cc1cc(C)c(CNc2ncnc3ccccc23)c(=O)[nH]1`, the cytotoxicity at 70.5 h is -2.78%.

For the molecule `Cc1cc(C)c(CNc2cnc3ccccc3n2)c(=O)[nH]1`, the cytotoxicity at 70.5 h stood at 59.4%.

As for `N#Cc1ccc(OC2CCN(CC(=O)NCC(F)(F)F)CC2)cc1`, the cytotoxicity at 70.5 h was -12.8%.

As for `N#Cc1ccc(SCCC(=O)N(Cc2cccnc2)C2CC2)cc1`, the cytotoxicity at 70.5 h is -7.83%.

With `N#Cc1ccc(OC2CCN(C(=O)COCC3CCCO3)CC2)cc1` (stereo not drawn), the cytotoxicity at 70.5 h is -9.76%.

As for `CCc1noc(CS(=O)(=O)c2cccc(OC)c2)n1`, the cytotoxicity at 70.5 h was 4.71%.

As to `CS(=O)(=O)CCC(=O)NC(Cc1ccccc1)C1CC1` (stereo not drawn), the cytotoxicity at 70.5 h is -4.37%.

Consider `CCCn1nccc1NC(=O)c1ccc(Cl)c(N2CCNC2=O)c1`, for which the cytotoxicity at 70.5 h was -2.55%.

Turning to `CCn1nc(C)cc1C(=O)N1CCOc2cc(C)ccc21`, the cytotoxicity at 70.5 h was -7.11%.

As for `Cc1n[nH]c(C2CN(Cc3csc(C4CCCC4)n3)CCO2)n1` (stereo not drawn), the cytotoxicity at 70.5 h was -6.59%.

For `COc1cc(NC2CCCNC2)cc(OC)c1` (stereo not drawn), the cytotoxicity at 70.5 h worked out at 17.7%.

`COc1ccc(C(C#N)NC(=O)CC2=CCCCC2)c(OC)c1` (stereo not drawn): the cytotoxicity at 70.5 h is -3.57%.

Take `CN(C)c1ccc(NC(=O)N2CCCCC2c2ncc[nH]2)cn1` (stereo not drawn): the cytotoxicity at 70.5 h was 14.8%.

Regarding `Cc1cc(C)c(CNc2nc3ccccc3cc2CO)c(=O)[nH]1`, the cytotoxicity at 70.5 h was found to be 6.72%.

Consider `CS(=O)(=O)NCC(=O)NC(Cc1ccccc1)C1CCCC1` (stereo not drawn), for which the cytotoxicity at 70.5 h was -4.4%.
